Measurements: PMC9861162 (Pharmaceuticals, 2022)

What was measured:
CYP2A6 [1] = molecular target: T1, CYP2A6 (Homo sapiens, UniProt P11509); test: in vitro CYP450 metabolism inhibition assay in human liver microsomes, CYP2A6 (coumarin); details: HLM, substrate coumarin; figure in parentheses not defined
T1 sequence (P11509 1-494): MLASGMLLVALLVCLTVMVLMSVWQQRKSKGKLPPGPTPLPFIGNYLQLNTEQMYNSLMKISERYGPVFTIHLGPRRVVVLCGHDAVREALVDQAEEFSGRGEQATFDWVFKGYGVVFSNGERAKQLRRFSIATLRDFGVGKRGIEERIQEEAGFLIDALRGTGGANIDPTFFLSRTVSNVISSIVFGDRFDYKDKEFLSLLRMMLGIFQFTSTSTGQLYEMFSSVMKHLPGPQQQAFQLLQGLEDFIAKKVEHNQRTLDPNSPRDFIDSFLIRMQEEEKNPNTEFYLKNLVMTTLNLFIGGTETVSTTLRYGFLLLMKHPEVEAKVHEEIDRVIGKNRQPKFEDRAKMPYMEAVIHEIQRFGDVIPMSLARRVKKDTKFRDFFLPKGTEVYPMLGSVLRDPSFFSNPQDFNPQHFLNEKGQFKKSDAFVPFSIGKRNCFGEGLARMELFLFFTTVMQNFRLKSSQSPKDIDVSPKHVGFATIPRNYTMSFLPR
Protocol: (§1) The incubation conditions employed for each CYP450 isoform were performed, as previously described.
(§2) Buffer solution (0.1 mol/L aqueous phosphate buffer, pH 7.4, 69 µL), NADPH-regenerating solutions (10 µL solution A: 26 mmol/L NADP+, 66 mmol/L glucose-6-phosphate, and 66 mmol/L MgCl2; 2 µL solution B: 40 U/mL glucose-6-phosphate dehydrogenase in 5 mmol/L sodium citrate), and deionized water (69 µL) were added, in a total volume of 150 μL. The tubes were vortex-mixed and preincubated with continuous gentle shaking for 5 min at 37 °C in a shaking water bath. Reactions were initiated by the addition of 50 µL of HLM solution in the tubes which were gently mixed by hand and incubated with continuous gentle shaking at 37 °C. Aliquots of 200 µL ice-cold solvent (Table 1) containing IS (1 µg/mL) were added. […] The supernatants were transferred to glass autosampler vials and submitted to LC-MS/MS analysis (5 µL injection volume) to monitor the substrate metabolite formation.

CYP3A [2] = details: clinical DDI studies; ref [9]; cited from earlier work
CYP3A [3] = details: ref [9]; cited from earlier work
CYP1A1 = system: CYP1A1; parameters: method as in PMID 25429674; details: ref [9]; cited from earlier work
CYP1A2 [4] = molecular target: T2, CYP1A2 (Homo sapiens, UniProt P05177); parameters: method as in PMID 25429674; details: ref [9]; cited from earlier work
T2 sequence (P05177 1-516): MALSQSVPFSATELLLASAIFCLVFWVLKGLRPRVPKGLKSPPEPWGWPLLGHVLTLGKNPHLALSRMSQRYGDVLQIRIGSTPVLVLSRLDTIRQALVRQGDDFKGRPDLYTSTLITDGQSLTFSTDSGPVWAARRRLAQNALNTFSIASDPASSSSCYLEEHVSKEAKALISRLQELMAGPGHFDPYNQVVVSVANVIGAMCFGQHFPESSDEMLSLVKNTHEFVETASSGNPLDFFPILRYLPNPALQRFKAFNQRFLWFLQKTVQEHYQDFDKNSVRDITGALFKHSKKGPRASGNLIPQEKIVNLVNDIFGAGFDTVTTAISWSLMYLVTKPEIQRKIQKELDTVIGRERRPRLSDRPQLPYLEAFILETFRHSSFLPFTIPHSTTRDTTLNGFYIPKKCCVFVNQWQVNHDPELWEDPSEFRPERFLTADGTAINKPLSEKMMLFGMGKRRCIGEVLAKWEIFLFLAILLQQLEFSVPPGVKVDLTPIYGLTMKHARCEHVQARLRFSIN

CYP2A6 [5] = molecular target: T1, CYP2A6; parameters: method as in PMID 25429674; details: ref [9]; cited from earlier work
CYP3A4/5 = test: in vitro CYP450 metabolism inhibition assay in human liver microsomes, CYP3A (midazolam or nifedipine); details: human, microsomes, pH 7.4
Protocol: as §1, §2

CYP3A4 = details: cited from earlier work
CYP2C8 = molecular target: T3, CYP2C8 (Homo sapiens, UniProt P10632); parameters: method as in Hua et al. [19]; details: by CYP2C8; ref Hua et al. [19]; cited from earlier work
T3 sequence (P10632 1-490): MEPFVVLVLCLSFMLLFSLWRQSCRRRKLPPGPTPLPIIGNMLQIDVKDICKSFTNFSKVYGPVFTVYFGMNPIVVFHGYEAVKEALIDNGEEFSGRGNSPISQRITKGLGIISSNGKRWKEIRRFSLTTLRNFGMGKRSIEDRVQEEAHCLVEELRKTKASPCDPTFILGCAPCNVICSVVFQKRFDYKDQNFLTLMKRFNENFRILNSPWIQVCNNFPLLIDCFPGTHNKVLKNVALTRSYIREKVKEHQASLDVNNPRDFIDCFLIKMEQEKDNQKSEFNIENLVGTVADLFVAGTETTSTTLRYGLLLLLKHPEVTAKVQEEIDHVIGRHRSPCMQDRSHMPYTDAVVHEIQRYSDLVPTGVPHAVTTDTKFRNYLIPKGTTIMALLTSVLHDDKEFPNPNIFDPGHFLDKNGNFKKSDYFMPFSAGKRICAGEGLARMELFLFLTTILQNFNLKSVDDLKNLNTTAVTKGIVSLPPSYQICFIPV

CYP1A2 [6] = molecular target: T2, CYP1A2; details: cited from earlier work
CYP2B6 = system: CYP2B6; parameters: method as in PMID 25429674; details: ref [9]; cited from earlier work
CYP2C19 = CYP2C19 (Homo sapiens, UniProt P33261); parameters: method as in PMID 25429674; details: ref [9]; cited from earlier work
CYP2D6 = CYP2D6 (Homo sapiens, UniProt P10635); parameters: method as in PMID 25429674; details: ref [9]; cited from earlier work
CYP2D6, sequence (P10635 whole entry): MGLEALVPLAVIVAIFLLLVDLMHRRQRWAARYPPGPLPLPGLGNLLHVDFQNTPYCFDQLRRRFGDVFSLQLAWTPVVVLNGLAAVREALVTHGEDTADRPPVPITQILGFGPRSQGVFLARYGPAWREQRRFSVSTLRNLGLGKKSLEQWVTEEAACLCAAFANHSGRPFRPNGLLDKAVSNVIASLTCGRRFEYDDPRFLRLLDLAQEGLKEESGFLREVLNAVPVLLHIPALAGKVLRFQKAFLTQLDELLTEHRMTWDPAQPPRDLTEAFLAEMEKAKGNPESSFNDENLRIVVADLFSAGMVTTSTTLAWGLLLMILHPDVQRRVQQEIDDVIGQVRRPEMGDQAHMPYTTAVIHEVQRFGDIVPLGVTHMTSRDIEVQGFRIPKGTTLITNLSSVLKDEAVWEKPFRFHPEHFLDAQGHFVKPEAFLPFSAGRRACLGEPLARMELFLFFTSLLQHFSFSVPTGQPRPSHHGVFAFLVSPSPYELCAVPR

CYP2C19, sequence (P33261 whole entry): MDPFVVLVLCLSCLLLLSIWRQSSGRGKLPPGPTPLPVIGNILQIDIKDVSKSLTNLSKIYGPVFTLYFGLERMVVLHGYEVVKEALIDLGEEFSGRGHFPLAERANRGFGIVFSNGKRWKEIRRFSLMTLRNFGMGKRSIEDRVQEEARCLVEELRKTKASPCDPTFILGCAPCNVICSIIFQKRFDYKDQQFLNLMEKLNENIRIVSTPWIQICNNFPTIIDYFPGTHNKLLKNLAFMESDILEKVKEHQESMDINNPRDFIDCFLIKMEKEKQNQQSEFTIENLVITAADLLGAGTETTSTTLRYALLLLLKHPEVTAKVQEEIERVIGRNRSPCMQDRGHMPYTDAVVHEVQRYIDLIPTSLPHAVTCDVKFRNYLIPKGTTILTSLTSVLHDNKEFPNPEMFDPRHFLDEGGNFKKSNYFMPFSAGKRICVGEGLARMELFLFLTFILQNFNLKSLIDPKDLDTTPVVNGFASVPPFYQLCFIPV

N[C@@H]1C[C@H]1c1ccccc1 (racemic) [Tranylcypromine, reference compound] gave an IC50 (CYP2A6 [1]) of 799 nM.

For CC(=O)N1CCN(c2ccc(OCC3COC(Cn4ccnc4)(c4ccc(Cl)cc4Cl)O3)cc2)CC1 (stereo not shown) [Ketoconazole], the “clinical CYP3A inhibitor strength” value (CYP3A [2]) is given as “moderate to strong CYP3A inhibitors”, the “in vitro inhibition of CYP3A” value (CYP3A [3]) is given as “strongly inhibits” and the “in vitro inhibition of CYP1A1” value (CYP1A1) is given as “strongly inhibits”. For the same compound, the “in vitro inhibition of CYP1A2” value (CYP1A2 [4]) was “moderately inhibits”, the “in vitro inhibition of CYP2A6” value (CYP2A6 [5]) was “moderately inhibits” and the IC50 (CYP3A4/5) was < 10 nM.

In the case of Cc1ncc2n1-c1ccc(Cl)cc1C(c1ccccc1F)=NC2 [Midazolam], the “fm (fraction metabolized)” value (CYP3A4) is listed as 0.88.

In the case of CC(=O)O[C@H]1C(=O)[C@@]2(C)[C@H]([C@H](OC(=O)c3ccccc3)[C@]3(O)C[C@H](OC(=O)[C@H](O)[C@@H](NC(=O)c4ccccc4)c4ccccc4)C(C)=C1C3(C)C)[C@]1(OC(C)=O)CO[C@@H]1C[C@@H]2O [Paclitaxel], the “fm (fraction metabolized)” value (CYP2C8) is given as 0.5.

For CCOc1ccc(NC(C)=O)cc1 [Phenacetin], the “fm (fraction metabolized)” value (CYP1A2 [6]) is listed as 0.71.

In the case of OC(Cn1cncn1)(Cn1cncn1)c1ccc(F)cc1F [fluconazole], the “clinical CYP3A inhibitor strength” value (CYP3A [2]) is listed as “moderate to strong CYP3A inhibitors” and the “in vitro inhibition of CYP3A” value (CYP3A [3]) is listed as “moderately inhibits”.

For CCC(C)n1ncn(-c2ccc(N3CCN(c4ccc(OCC5COC(Cn6cncn6)(c6ccc(Cl)cc6Cl)O5)cc4)CC3)cc2)c1=O (stereo not shown) [itraconazole], the “in vitro inhibition of CYP2B6” value (CYP2B6) is listed as “strongly inhibits”, the “clinical CYP3A inhibitor strength” value (CYP3A [2]) is listed as “moderate to strong CYP3A inhibitors” and the “in vitro inhibition of CYP3A” value (CYP3A [3]) is listed as “strongly inhibits”.

In the case of Clc1ccc(COC(Cn2ccnc2)c2ccc(Cl)cc2Cl)c(Cl)c1 (stereo not shown) [miconazole], the “in vitro inhibition of CYP2C19” value (CYP2C19) is given as “strongly inhibits”, the “in vitro inhibition of CYP2B6” value (CYP2B6) is given as “strongly inhibits” and the “in vitro inhibition of CYP3A” value (CYP3A [3]) is given as “strongly inhibits”. The “in vitro inhibition of CYP2D6” value (CYP2D6) was “strongly inhibits” and the “in vitro inhibition of CYP2A6” value (CYP2A6 [5]) was “strongly inhibits”.

For CC[C@@H]([C@H](C)O)n1ncn(-c2ccc(N3CCN(c4ccc(OC[C@@H]5CO[C@@](Cn6cncn6)(c6ccc(F)cc6F)C5)cc4)CC3)cc2)c1=O [posaconazole], the “clinical CYP3A inhibitor strength” value (CYP3A [2]) is listed as “moderate to strong CYP3A inhibitors” and the “in vitro inhibition of CYP3A” value (CYP3A [3]) is listed as “strongly inhibits”.
